Experiments:
Test in all cases: 6 day proliferation assay (assay 1)
Format in all cases: cell-based
1A2 = details: Homo sapiens, 144 h, 6 days, EZH2 WT, read-out: Compound A gIC50
Procedure: (§1) Cells were cultured in appropriate medium in flasks to 80-100% confluency. Cells were harvested, counted and plated at a pre-determined optimal seeding density ranging from 50 cells per well to 4000 cells per well depending on the growth characteristics of individual cell lines in 384-well tissue culture plates (Greiner #781090). Plates were then incubated overnight at 37° C., 5% CO2. Cells were treated with compound using a 20 point 1:2 fold dilution scheme with a final concentration of 0.15% DMSO. One column per plate contained cells treated with 0.15% DMSO only, and one column contained no cells to serve as background. Plates were incubated at 37° C., 5% CO2 for 6 days. A time zero (t0) reading was taken on the day of compound addition. To develop the plates, 25 μL of Cell Titer Glo (Promega #G7572) was added to each well and incubated at room temperature for 12 minutes. Luminescence was measured on the Tecan Safire2.
(§2) Data were analyzed using Assay Client software. Dose response curves were generated based on percent of growth compared to t0. Growth IC50 values were calculated using a 4 parameter logistic model.
(§3) In addition, further optimization of the EZH2 inhibition assay

RCK8 = details: Homo sapiens, 144 h, 6 days, EZH2 WT, read-out: Compound A gIC50
Procedure: as §1, §2, §3

JM1 = details: Homo sapiens, 144 h, 6 days, EZH2 WT, read-out: Compound A gIC50
Procedure: as §1, §2, §3

Farage = details: Homo sapiens, 144 h, 6 days, EZH2 WT, read-out: Compound A gIC50
Procedure: as §1, §2, §3

Ramos = details: Homo sapiens, 144 h, 6 days, EZH2 WT, read-out: Compound A gIC50
Procedure: as §1, §2, §3

CA46 = details: Homo sapiens, 144 h, 6 days, EZH2 WT, read-out: Compound A gIC50
Procedure: as §1, §2, §3

Jiyoye = details: Homo sapiens, 144 h, 6 days, EZH2 WT, read-out: Compound A gIC50
Procedure: as §1, §2, §3

BC-3 = details: Homo sapiens, 144 h, 6 days, EZH2 WT, read-out: Compound A gIC50
Procedure: as §1, §2, §3

RL = details: Homo sapiens, 144 h, 6 days, EZH2 Y641N, read-out: Compound A gIC50
Procedure: as §1, §2, §3

SU-DHL-5 = details: Homo sapiens, 144 h, 6 days, EZH2 WT, read-out: Compound A gIC50
Procedure: as §1, §2, §3

DG75 = details: Homo sapiens, DG-75, 144 h, 6 days, EZH2 WT, read-out: Compound A gIC50
Procedure: as §1, §2, §3

REC1 = details: Homo sapiens, 144 h, 6 days, EZH2 WT, read-out: Compound A gIC50
Procedure: as §1, §2, §3

WSU-DLCL-2 = details: Homo sapiens, WSUDLCL2, 144 h, 6 days, EZH2 Y641F, read-out: Compound A gIC50
Procedure: as §1, §2, §3

SU-DHL-4 = details: Homo sapiens, 144 h, 6 days, EZH2 Y641S, read-out: Compound A gIC50
Procedure: as §1, §2, §3

Pfeiffer = details: Homo sapiens, 144 h, 6 days, EZH2 A677G, read-out: Compound A gIC50
Procedure: as §1, §2, §3

NAMALWA = details: Homo sapiens, 144 h, 6 days, EZH2 WT, read-out: Compound A gIC50
Procedure: as §1, §2, §3

HDMyZ = details: Homo sapiens, 144 h, 6 days, EZH2 WT, read-out: Compound A gIC50
Procedure: as §1, §2, §3

MJ = details: Homo sapiens, 144 h, 6 days, EZH2 WT, read-out: Compound A gIC50
Procedure: as §1, §2, §3

Hs445 = details: Homo sapiens, Hs 445, 144 h, 6 days, EZH2 WT, read-out: Compound A gIC50
Procedure: as §1, §2, §3

Toledo = details: Homo sapiens, 144 h, 6 days, EZH2 WT, read-out: Compound A gIC50
Procedure: as §1, §2, §3

DB = details: Homo sapiens, 144 h, 6 days, EZH2 Y641N, read-out: Compound A gIC50
Procedure: as §1, §2, §3

SKM1 = details: Homo sapiens, SKM-1, 144 h, 6 days, EZH2 Y641C, read-out: Compound A gIC50
Procedure: as §1, §2, §3

BC-2 = details: Homo sapiens, 144 h, 6 days, EZH2 WT, read-out: Compound A gIC50
Procedure: as §1, §2, §3

Raji = details: Homo sapiens, 144 h, 6 days, EZH2 WT, read-out: Compound A gIC50
Procedure: as §1, §2, §3

CROAP5 = details: Homo sapiens, CRO-AP5, 144 h, 6 days, EZH2 WT, read-out: Compound A gIC50
Procedure: as §1, §2, §3

Karpass422 = details: Homo sapiens, 144 h, 6 days, EZH2 Y641N, read-out: Compound A gIC50
Procedure: as §1, §2, §3

U937 = details: Homo sapiens, U-937, 144 h, 6 days, EZH2 WT, read-out: Compound A gIC50
Procedure: as §1, §2, §3

HT = details: Homo sapiens, 144 h, 6 days, EZH2 WT, read-out: Compound A gIC50
Procedure: as §1, §2, §3

Daudi = details: Homo sapiens, 144 h, 6 days, EZH2 WT, read-out: Compound A gIC50
Procedure: as §1, §2, §3

SU-DHL-10 = details: Homo sapiens, SU-DHL10, 144 h, 6 days, EZH2 Y641F, read-out: Compound A gIC50
Procedure: as §1, §2, §3

BC-1 = details: Homo sapiens, BC1, 144 h, 6 days, EZH2 WT, read-out: Compound A gIC50
Procedure: as §1, §2, §3

P3HR1 = details: Homo sapiens, P3HR-1, 144 h, 6 days, EZH2 WT, read-out: Compound A gIC50
Procedure: as §1, §2, §3

OCI-LY-19 = details: Homo sapiens, OCI-LY19, 144 h, 6 days, EZH2 Y641N, read-out: Compound A gIC50
Procedure: as §1, §2, §3

RPMI-6666 = details: Homo sapiens, 144 h, 6 days, EZH2 WT, read-out: Compound A gIC50
Procedure: as §1, §2, §3

L428 = details: Homo sapiens, L-428, 144 h, 6 days, EZH2 Y641S, read-out: Compound A gIC50
Procedure: as §1, §2, §3

HsSullan = details: Homo sapiens, 144 h, 6 days, EZH2 WT, read-out: Compound A gIC50
Procedure: as §1, §2, §3

CROAP2 = details: Homo sapiens, CRO-AP2, 144 h, 6 days, EZH2 WT, read-out: Compound A gIC50
Procedure: as §1, §2, §3

DOHH2 = details: Homo sapiens, DOHH-2, 144 h, 6 days, EZH2 WT, read-out: Compound A gIC50
Procedure: as §1, §2, §3

CCCc1cc(C)[nH]c(=O)c1CNC(=O)c1cc(-c2ccc(N3CCN(C)CC3)nc2)cc2c1cnn2C(C)C [Compound A, 1-(1-methylethyl)-N-[(6-methyl-2-oxo-4-propyl-1,2-dihydro-3-pyridinyl)methyl]-6-[6-(4-methyl-1-piperazinyl)-3-pyridinyl]-1H-indazole-4-carboxamide]
IC50 (1A2): 9.26 µM
IC50 (RCK8): 5.56 µM
IC50 (JM1): 6.66 µM
IC50 (Farage): 4.79 µM
IC50 (Ramos): 3.51 µM
IC50 (CA46): 8.63 µM
IC50 (Jiyoye): 2.47 µM
IC50 (BC-3): 5.28 µM
IC50 (RL): 4.66 µM
IC50 (SU-DHL-5): 3.44 µM
IC50 (DG75): 6.23 µM
IC50 (REC1): 2.91 µM
IC50 (WSU-DLCL-2): 3.1 µM
IC50 (SU-DHL-4): 14 µM
IC50 (Pfeiffer): 0.189 µM
IC50 (NAMALWA): 6.22 µM
IC50 (HDMyZ): 7.21 µM
IC50 (MJ): 3.28 µM
IC50 (Hs445): 1.57 µM
IC50 (Toledo): 21.8 µM
IC50 (DB): 9.5 µM
IC50 (SKM1): 6.16 µM
IC50 (BC-2): 2.18 µM
IC50 (Raji): 6.14 µM
IC50 (CROAP5): 6.16 µM
IC50 (Karpass422): 1.32 µM
IC50 (U937): 7.9 µM
IC50 (HT): 3.71 µM
IC50 (Daudi): 13.4 µM
IC50 (SU-DHL-10): 0.324 µM
IC50 (BC-1): 8.82 µM
IC50 (P3HR1): 7.8 µM
IC50 (OCI-LY-19): 4.48 µM
IC50 (RPMI-6666): 3.1 µM
IC50 (L428): 3.1 µM
IC50 (HsSullan): 3.94 µM
IC50 (CROAP2): 11.3 µM
IC50 (DOHH2): 6.43 µM
